# Results as given in ChEMBL document CHEMBL1201862, “PubChem BioAssay data set” (2004).
#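 Values below derive from 48-hour exposures of cells grown in 96-well plates, with endpoints linearly interpolated between the two concentrations bracketing the appropriate inhibition level. GI50 = concentration required for 50% inhibition of growth.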 Calls of active or inactive are those of the source. Cut-off read from the data, not from the text of the source: active = GI50 up to about 1.1 µM and inactive = higher.
# Experiments:
# Test in all cases: NCI-60 cell line screen, 48 h
# [1] = test system: DMS-114
# [2] = test system: SNB-75
# [3] = test system: M14
# [4] = test system: SF-539
# [5] = test system: NCI-H23
# [6] = test system: RPMI-8226
# [7] = test system: IGROV-1
# [8] = test system: OVCAR-4
# [9] = test system: SNB-78
# [10] = test system: K562
# [11] = test system: DLD-1
# [12] = test system: HT-29
# [13] = test system: NCI-H522
# [14] = test system: M19-MEL
# [15] = test system: KM12
# [16] = test system: 786-0
# [17] = test system: RXF 393
# [18] = test system: OVCAR-8
# [19] = test system: UACC-257
# [20] = test system: UACC-62
# [21] = test system: UO-31
# [22] = test system: HCT-116
# [23] = test system: CCRF-CEM
# [24] = test system: COLO 205
# [25] = test system: EKVX
# [26] = test system: HCT-15
# [27] = test system: XF498
# [28] = test system: DMS-273
# [29] = test system: KM-20L2
# [30] = test system: A549
# [31] = test system: SN12C
# [32] = test system: NCI-H460
# [33] = test system: LXFL 529
# [34] = test system: SK-MEL-5
# [35] = test system: OVCAR-3
# [36] = test system: SK-OV-3
# [37] = test system: Malme-3M
# [38] = test system: SNB-19
# [39] = test system: TK-10
# [40] = test system: SK-MEL-2
# [41] = test system: SF-295
# [42] = test system: SW-620
# [43] = test system: SF-268
# [44] = test system: HOP-18
# [45] = test system: HCC 2998
# [46] = test system: HOP-62
# [47] = test system: OVCAR-5
# [48] = test system: ACHN
# [49] = test system: CAKI-1
# [50] = test system: U-251
# [51] = test system: MOLT-4
# [52] = test system: A498
# [53] = test system: NCI-H226
# [54] = test system: SK-MEL-28
# [55] = test system: HOP-92
# [56] = test system: HL-60
# [57] = test system: LOX IMVI
smiles,measurement,setting,value
Cn1c(=O)nc2n(-c3ccc(F)cc3)c3ccccc3nc-2c1=O,GI50,[1],12.8 µM (inactive)
same,GI50,[2],31 µM (inactive)
same,GI50,[3],13.9 µM (inactive)
same,GI50,[4],21.3 µM (inactive)
same,GI50,[5],20 µM (inactive)
same,GI50,[6],25.2 µM (inactive)
same,GI50,[7],24 µM (inactive)
same,GI50,[8],14.4 µM (inactive)
same,GI50,[9],20 µM (inactive)
same,GI50,[10],19.9 µM (inactive)
same,GI50,[11],19.5 µM (inactive)
same,GI50,[12],14.1 µM (inactive)
same,GI50,[13],16.1 µM (inactive)
same,GI50,[14],2.89 µM (inactive)
same,GI50,[15],24.7 µM (inactive)
same,GI50,[16],28.2 µM (inactive)
same,GI50,[17],23.8 µM (inactive)
same,GI50,[18],20.5 µM (inactive)
same,GI50,[19],14.4 µM (inactive)
same,GI50,[20],12.2 µM (inactive)
same,GI50,[21],38.4 µM (inactive)
same,GI50,[22],17.5 µM (inactive)
same,GI50,[23],26.6 µM (inactive)
same,GI50,[24],6.84 µM (inactive)
same,GI50,[25],16.4 µM (inactive)
same,GI50,[26],16.4 µM
same,GI50,[27],19.3 µM (inactive)
same,GI50,[28],17 µM (inactive)
same,GI50,[29],19.8 µM (inactive)
same,GI50,[30],18.3 µM (inactive)
same,GI50,[31],20.5 µM (inactive)
same,GI50,[32],18.2 µM (inactive)
same,GI50,[33],22.8 µM (inactive)
same,GI50,[34],12.6 µM (inactive)
same,GI50,[35],3.13 µM (inactive)
same,GI50,[36],> 100 µM (inactive)
same,GI50,[37],10.5 µM (inactive)
same,GI50,[38],13.9 µM (inactive)
same,GI50,[39],26.5 µM (inactive)
same,GI50,[40],19 µM (inactive)
same,GI50,[41],18.7 µM (inactive)
same,GI50,[42],18.8 µM (inactive)
same,GI50,[43],28.2 µM (inactive)
same,GI50,[44],19.4 µM (inactive)
same,GI50,[45],19.1 µM (inactive)
same,GI50,[46],46.7 µM (inactive)
same,GI50,[47],24.3 µM (inactive)
same,GI50,[48],13.9 µM (inactive)
same,GI50,[49],28.8 µM (inactive)
same,GI50,[50],21.5 µM (inactive)
same,GI50,[51],25.7 µM (inactive)
same,GI50,[52],32.6 µM (inactive)
same,GI50,[53],36.7 µM (inactive)
Brc1cccc(/C=N/C23CC4CC(CC(C4)C2)C3)c1,GI50,[1],> 100 µM (inactive)
same,GI50,[54],> 100 µM (inactive)
same,GI50,[2],> 100 µM (inactive)
same,GI50,[3],> 100 µM (inactive)
same,GI50,[4],> 100 µM (inactive)
same,GI50,[5],> 100 µM (inactive)
same,GI50,[6],> 100 µM (inactive)
same,GI50,[7],> 100 µM (inactive)
same,GI50,[8],> 100 µM (inactive)
same,GI50,[9],> 100 µM (inactive)
same,GI50,[10],> 100 µM (inactive)
same,GI50,[11],> 100 µM (inactive)
same,GI50,[12],> 100 µM (inactive)
same,GI50,[13],> 100 µM (inactive)
same,GI50,[14],> 100 µM (inactive)
same,GI50,[15],> 100 µM (inactive)
same,GI50,[16],> 100 µM (inactive)
same,GI50,[17],> 100 µM (inactive)
same,GI50,[18],> 100 µM (inactive)
same,GI50,[19],> 100 µM (inactive)
same,GI50,[20],> 100 µM (inactive)
same,GI50,[21],> 100 µM (inactive)
same,GI50,[22],> 100 µM (inactive)
same,GI50,[23],> 100 µM (inactive)
same,GI50,[24],> 100 µM (inactive)
same,GI50,[25],> 100 µM (inactive)
same,GI50,[26],> 100 µM
same,GI50,[27],> 100 µM (inactive)
same,GI50,[28],> 100 µM (inactive)
same,GI50,[29],> 100 µM (inactive)
same,GI50,[30],> 100 µM (inactive)
same,GI50,[31],> 100 µM (inactive)
same,GI50,[32],> 100 µM (inactive)
same,GI50,[33],> 100 µM (inactive)
same,GI50,[55],> 100 µM (inactive)
same,GI50,[34],> 100 µM (inactive)
same,GI50,[56],> 100 µM (inactive)
same,GI50,[35],> 100 µM (inactive)
same,GI50,[36],> 100 µM (inactive)
same,GI50,[37],> 100 µM (inactive)
same,GI50,[38],> 100 µM (inactive)
same,GI50,[57],> 100 µM (inactive)
same,GI50,[39],> 100 µM (inactive)
same,GI50,[40],> 100 µM (inactive)
same,GI50,[41],> 100 µM (inactive)
same,GI50,[42],> 100 µM (inactive)
same,GI50,[43],> 100 µM (inactive)
same,GI50,[44],> 100 µM (inactive)
same,GI50,[45],> 100 µM (inactive)
same,GI50,[46],> 100 µM (inactive)
same,GI50,[47],> 100 µM (inactive)
same,GI50,[48],> 100 µM (inactive)
same,GI50,[49],> 100 µM (inactive)
same,GI50,[50],> 100 µM (inactive)
same,GI50,[51],> 100 µM (inactive)
same,GI50,[52],> 100 µM (inactive)
same,GI50,[53],> 100 µM (inactive)
